Series [1] concerns HSV-1. Details: method as in PMID 29483113. As to conditions: different model of epithelial cells; cited from earlier work. The source says:
In our studies, we initially utilized the Vero E6 cell line, which has been a long-standing choice in herpesviruses research ([40], [41]).

The subject of series [2] is HSV-1. The conditions noted are these: concentration reducing viral replication by 50%; TIGKs cells pre-treated, infected and cultivated with compound; qPCR; mean of two independent experiments.
Procedure: Data were expressed as means ± SD. Statistical significance was determined using unpaired t-test, one-way ANOVA, and/or two-way ANOVA for direct comparisons between single groups. A p-value <0.05 was considered statistically significant. We used GrapPad Prism 10 software for the analyses. […]
The nature of series [3]: in vitro.
Procedure: The viability of Vero E6 and TIGKs cells was examined by the XTT Cell Viability Assay kit (Biological Industries, USA). Briefly, cells were treated with indicated concentrations of the peptide conjugates for 48 h at 37°C. Next, the fresh medium was added to the cells and 50 μl of the activated XTT reagent [2,3-bis(2-methoxy-4-nitro-5-sulphenyl)-2H-tetrazolium-5-carboxanilide] was added and further incubated for 2 h at 37°C. Absorbance was measured at a wavelength of 480 nm using FlexStation 3 microplate reader (Molecular Device, Wokingham, UK). The results were expressed normalized against a control of untreated cells (100% viability). To assess the effect of peptide conjugate on the integrity of the plasma membrane, the LDH release assay was performed using the CytoTox96 nonradioactive cytotoxicity assay kit (Promega, Madison, WI, USA) according to the manufacturer's instructions. Cytotoxicity was calculated with the formula: % cytotoxicity = 100 × (experimental LDH release/ maximum LDH release), where maximum LDH release is after lysis solution addition (Triton X-100). Relative amounts of LDH release were measured (absorbance at 490 nm) using FlexStation 3 microplate reader (Molecular Device, Wokingham, UK). […]
Data were expressed as means ± SD. Statistical significance was determined using unpaired t-test, one-way ANOVA, and/or two-way ANOVA for direct comparisons between single groups. […]
Series [4] concerns HSV-1. Description: Antiviral activity in 3D organotypic model of human gingiva (OTG). The conditions noted are these: 15 μg/ml; H&E stained sections; Figure 5A. In kind it is cell-based, herpes simplex virus type 1. The method, then: Protocol was described previously ([34]). Briefly, to prepare 3D cultures, 150,000 gingival fibroblasts suspended in 10% FBS in DMEM were mixed with 2.4 ml of ice-cold Matrigel® (Corning) (final concentration 7 mg/ml) and placed in the middle of 12-well cell culture inserts (Greiner). Three days later, 1 × 10^6 TIGK cells suspended in EPM1 were added to the top of the insert. On the ninth day after the start of the procedure, the old culture medium was removed and EPM2 was added to the bottom of the insert. The epithelial layer on the top was exposed to the air, which promotes epithelial differentiation and then stratification. About 8–10 days after air-liquid interphase, 3D cultures of gingiva were used for further experiments.
The apical surface of OTG model was washed three times with PBS and then inoculated with 100 μl of viral stock (TCID50 400 /ml) in the presence of DAL-PEG-LK6 or CPP1-PEG-LK6 (15 μg/ml) for 2 h at 4°C. Following incubation, the unbound HSV-1 was removed by washing with PBS for 10 min at 37°C, and the OTG cultures were maintained at an air-liquid interface for the rest of the experiment. To determine viral yield, 120 μl of PBS was applied to the apical surface of the OTG, and harvested for DNA isolation after 10 min of incubation at 37°C.
Briefly, cell inserts were fixed in 10% formaldehyde at 4°C for 1 h. After embedding in paraffin, 3D cultures were cut into 5 μm sections and stained with H&E solution. For immunohistochemical analysis, slides were incubated for 1 h at room temperature in blocking buffer (5% normal goat serum, 0.1% saponin in PBS) and stained with primary antibodies anti-HSV-1 (1:100, 1% normal goat serum, 0.1% saponin in PBS; Abcam) and secondary antibodies: goat anti-rabbit conjugated with Alexa Fluor 488 (1:2000; Cell Signaling). Finally, cell nuclei were stained with ProLong Antifade Mounting Medium with DAPI. Slides were visualized with EVOS FL Cell Imaging System (Thermo Fisher Scientific).
(§1) Viral DNA was isolated from the conditioned media or the apical washes of inserts (OTG model) using Viral DNA/RNA Isolation Kit (A&A Biotechnology). The virus yield assessed by quantitative real-time PCR (qPCR). The reaction was carried out in a CFX96 Touch Real-Time PCR Detection System (Bio-Rad), in a 10 μl reaction mixture consisting of TaqMan^TM Fast Advanced Master Mix, TaqMan^TM Microbe Detection assay against HSV-1 (Vi04230116_s1) and 1 μl of viral DNA. The temperature profile was 10 s at 95°C, followed by 40 cycles of 3 s at 95°C and 20 s at 60°C. DNA quantification standards were prepared. In summary, a fragment of viral DNA was amplified using the primers listed above and cloned into the pTZ57R/T plasmid using the InsTAclone PCR cloning kit. The plasmid was propagated in E. coli, purified with the GeneJet Plasmid Miniprep Kit, and digested with the EcoR1 restriction enzyme. The number of copies per mL was estimated after the concentration of linearized DNA was assessed spectrophotometrically.

Series [5] deals with HSV-1. Kind of series: Virus inhibition (replication) assay in Vero E6 and TIGKs cells, qPCR, titration, gB Western blot. The conditions noted are these: 48 h p.i. In kind it is cell-based, herpes simplex virus type 1. The method, then:
HSV-1 stocks were generated by infecting Vero E6 cells. Cells were lysed at 48 h p.i. by two freeze-thaw cycles. The virus containing fluid was aliquoted and stored at −80°C. A control Vero E6 cell lysate from mock-infected cells was prepared in the same manner as the virus stock. Virus yield was assessed by virus titration on fully confluent Vero E6 cells in 96-well plates, according to the method of Reed & Muench ([32]). Plates were incubated at 37°C for 48 h and the occurrence of a cytopathic effect was scored using an inverted microscope, and TCID50 (50% tissue culture infection dose) was calculated.
Vero E6 or TIGKs cells were seeded in 12-well plates and cultured for 48 h. […] After 30 min of incubation at 37°C, cells were infected with HSV-1 at TCID50 400 /ml or treated with mock. After 2 h of infection at 37°C, unbound viral particles were removed by washing with PBS, and culture media supplemented with peptide conjugates were applied. Following 48 h of incubation, media were collected, and the quantity of HSV-1 DNA copies was assessed using titration and qPCR.
as §1
Protein extracts were prepared using lysis buffer (0.25% Na-deoxycholate, 0.5% Nonidet P-40, 0.05% SDS, protease inhibitor mixture, 2.5 mM EDTA in PBS), and the protein concentration was assessed using Pierce BCA (Thermo Fisher) protein assay kit. Equal amounts of cell extracts were separated on 10% SDS-PAGE gel and electrotransferred onto polyvinylidene difluoride membranes for gB and β-actin in transfer buffer (25 mM Tris, 0.2 M glycine, and 20% ethanol) for 90 min at 100 V. Nonspecific binding sites were blocked for 90 min in 5% skimmed milk prepared in TBST buffer (20 mM Tris, pH 7.5, 0.5 M NaCl, 0.05% Tween 20). Membranes were further incubated overnight at 4°C with primary antibodies: mouse anti-HSV-1 + HSV-2 gB (1:5000; abcam) and mouse anti-β-actin (1:4,000; BD Biosciences). The following day, membranes were washed three times with TBST buffer and incubated with HRP-conjugated secondary antibodies for 60 min at 37°C: goat anti-mouse IgG (1:20,000; β-actin; BD Bioscience) or sheep anti-mouse IgG (1:50,000; gB; Sigma Aldrich). Next, blots were washed five times for 5 min in TBST buffer, developed using Luminata Cresecendo Substarte (Merck) and exposed to AGFA medical x-ray film. Densitometry analysis was performed using ImageJ 1.52q software.
On the technique in general: Quantitative PCR measures a nucleic acid by following its amplification.

The nature of series [6]: Analytical RP-HPLC retention time. As to conditions: Phenomenex Jupiter 4 μ Proteo 90 Å, 250 × 4.60 mm, listed as basic physicochemical characteristic. As to the method:
The synthesized compounds were then purified by reverse-phase high-performance liquid chromatography (RP-HPLC) on a Waters system (Phenomenex Jupiter 4 μ Proteo 90 Å column, 250 × 10 mm). A linear gradient from 10% to 80% of solvent B over 60 min (Solvent A: 0.1% TFA in water; Solvent B: 80% acetonitrile in Solvent A) was employed with a flow rate 5 ml/min. The homogeneity of the final peptide fractions was analyzed using a Shimadzu HPLC System (Shimadzu Europe GmbH, Duisburg, Germany) equipped with a Phenomenex Jupiter 4 μ Proteo 90 Å column, 250 × 4.60 mm. The mass spectra of the synthesized peptides were recorded using a Biflex III MALDI-TOF mass spectrometry (Bruker, Mannheim, Germany) with α-cyano-4-hydroxy-cinnamic acid (CCA) or 2,5-dihydroxybenzoic acid (DHB) used as the matrix.

In brackets after ≈: the same amount, converted by molar mass. Where two headings read alike, the source gives them in different places. Square brackets hold non-standard residues; d marks the D form. Peptide text beside a SMILES is read from it. AEEA = NCCOCCOCC(=O)O

In general, IC50 refers to the concentration at which inhibition is half-maximal. For temporin B, in series [1], the half-inhibitory concentration (IC50) was 93 µg/mL. As for `CC[C@H](C)[C@H](NC(=O)COCCOCCNC(=O)[C@H](CCCNC(=N)N)NC(=O)[C@H](CC(C)C)NC(=O)[C@H](Cc1ccccc1)NC(=O)CNC(=O)[C@@H](C)NC(=O)[C@@H](N)Cc1ccc(O)cc1)C(=O)N[C@@H](CCCCN)C(=O)N[C@@H](CCCCN)C(=O)N[C@H](C(=O)N[C@@H](CC(C)C)C(=O)N[C@@H](CO)C(=O)N[C@@H](CCCCN)C(=O)N[C@H](C(=O)N[C@@H](CCCCN)C(=O)N[C@@H](CCCCN)C(=O)N[C@@H](CC(C)C)C(=O)N[C@@H](CC(C)C)C(=O)N[C@@H](CCCCN)C(N)=O)[C@@H](C)CC)[C@@H](C)CC` [DAL-PEG-LK6] (H-Y[dA]GFLR[AEEA]IKKILSKIKKLLK-NH2), the IC50 in series [2] was determined as 3.699 µg/mL (≈ 1.54 µM). Moreover, the CC50 at 48 h in series [3] is 33.8 µg/mL (≈ 14.1 µM). For `CC[C@H](C)[C@H](NC(=O)COCCOCCNC(=O)[C@H](CCCNC(=N)N)NC(=O)[C@H](CC(C)C)NC(=O)[C@H](Cc1ccccc1)NC(=O)CNC(=O)[C@@H](C)NC(=O)[C@@H](N)Cc1ccc(O)cc1)C(=O)N[C@@H](CCCCN)C(=O)N[C@@H](CCCCN)C(=O)N[C@H](C(=O)N[C@@H](CC(C)C)C(=O)N[C@@H](CO)C(=O)N[C@H](CCCCN)C(=O)N[C@H](C(=O)N[C@@H](CCCCN)C(=O)N[C@@H](CCCCN)C(=O)N[C@@H](CC(C)C)C(=O)N[C@@H](CC(C)C)C(N)=O)[C@@H](C)CC)[C@@H](C)CC` [DAL-PEG-DK5] (H-Y[dA]GFLR[AEEA]IKKILS[dK]IKKLL-NH2), the “morphology of epithelial cells in OTG (H&E)” value in series [4] is reported as “no changes in the morphology of epithelial cells”. “RKKRRQRRR-O2Oc-IKKILSKIKKLLK-NH2 [CPP2-PEG-LK6, conjugate of cationic cell-penetrating peptide (HIV-1 TAT49–57 fragment) with LK6 via PEG linker]”: in series [5] (Figure 1C, Vero E6 (DAL-PEG-LK6 and CPP1-PEG-LK6 25 μg/ml; CPP2-PEG-LK6 10 μg/ml) and TIGKs cells (15 μg/ml)), the “reduction in viral yield in the qPCR test” value is recorded as 1 log. In addition, in series [5] (Figure 1D, both cell models (Vero E6, TIGKs), normalized to untreated control), the “reduction of virus replication in titration assay” value was 97%. Further, in series [6], the Rt turned out to be 20.094.
